Test results as given in ChEMBL document CHEMBL3243921, “2-Pyrrolidinylideneureas, a new class of central nervous system agents” (J Med Chem, 1978).
The source made the active and inactive calls.

tested on: Mus musculus; assay: Muscle relaxant activity in po dosed mouse assessed as blockade of pentylenetetrazol-induced tonic extensor seizure; type: functional

`Cc1cccc(C)c1NC(=O)/N=C1\CCCCCN1` was tested. Which Activity did it give?
Its Activity is “inactive”.

`CN1CC(C)(C)C/C1=N\C(=O)Nc1cccc(Cl)c1` was tested. Which Activity did it give?
Its Activity is “inactive”.

How did the Activity turn out when `Cc1ccc(NC(=O)/N=C2\CCCN2C)cc1` was run?
The Activity was “inactive”.

Which Activity does the source give for `Cc1cccc(C)c1NC(=O)/N=C1\CCCCCN1C` here?
Its Activity is “inactive”.

How did the Activity turn out when `Cc1cc(N(C)C)cc(C)c1NC(=O)/N=C1\CCCN1C` was run?
Its Activity is “Active”.

For `CCCCN1CCC/C1=N\C(=O)Nc1c(C)cccc1C`, which Activity is on record?
Its Activity is “inactive”.

With `Cc1cc(C)c(NC(=O)/N=C2\CCCN2C)c(C)c1` as the molecule, how does the Activity read?
Its Activity is “Active”.

For `Cc1cccc(C)c1NC(=O)/N=C1\CCCN1Cc1ccccc1`, which Activity is on record?
The Activity was “inactive”.

With `CN1CCC/C1=N\C(=O)Nc1ccc(Cl)cc1` as the molecule, how does the Activity read?
The Activity was “inactive”.

`CCCCN1CCC/C1=N\C(=O)Nc1cccc(Cl)c1` was tested. Which Activity did it give?
The Activity was “inactive”.

`CN1CC(C)(C)C/C1=N\C(=O)Nc1c(Cl)cccc1Cl` was tested. Which Activity did it give?
The Activity was “inactive”.

Which Activity does the source give for `CN1CCC/C1=N\C(=O)Nc1ccccc1Cl` here?
The Activity was “Active”.

With `CC1/C(=N\C(=O)Nc2ccccc2)N(C)CC1c1ccccc1` (stereo not given) as the molecule, how does the Activity read?
Its Activity is “inactive”.

Which Activity does the source give for `CN1CCC/C1=N\C(=O)Nc1ccc(F)cc1` here?
Its Activity is “inactive”.

`CCOC(=O)c1ccc(NC(=O)/N=C2\CCCN2C)cc1` was tested. Which Activity did it give?
Its Activity is “inactive”.

`CSc1ccc(NC(=O)/N=C2\CCCN2C)cc1` was tested. Which Activity did it give?
The Activity was “inactive”.

For `CN1CCC/C1=N\C(=O)Nc1c(Cl)cc(Cl)cc1Cl`, which Activity is on record?
Its Activity is “Active”.

`COc1ccc(NC(=O)/N=C2\CCCN2C)cc1` was tested. Which Activity did it give?
Its Activity is “inactive”.

With `CN1CCC/C1=N\C(=O)Nc1ccc(S(C)(=O)=O)cc1` as the molecule, how does the Activity read?
The Activity was “inactive”.

tested on: Mus musculus; assay: Hypnotic activity in po dosed mouse assessed as increase in pentylenetetrazol-induced persistent-convulsive threshold; type: functional, organism-based

Which Activity does the source give for `Cc1cccc(C)c1NC(=O)/N=C1\CCCCCN1` here?
The Activity was “inactive”.

How did the Activity turn out when `CN1CC(C)(C)C/C1=N\C(=O)Nc1cccc(Cl)c1` was run?
The Activity was “inactive”.

With `Cc1cccc(C)c1NC(=O)/N=C1\CCCCCN1C` as the molecule, how does the Activity read?
Its Activity is “inactive”.

`CCCCN1CCC/C1=N\C(=O)Nc1c(C)cccc1C` was tested. Which Activity did it give?
The Activity was “inactive”.

Which Activity does the source give for `Cc1cccc(C)c1NC(=O)/N=C1\CCCN1Cc1ccccc1` here?
Its Activity is “inactive”.

Which Activity does the source give for `CCCCN1CCC/C1=N\C(=O)Nc1cccc(Cl)c1` here?
The Activity was “inactive”.

`CN1CC(C)(C)C/C1=N\C(=O)Nc1c(Cl)cccc1Cl` was tested. Which Activity did it give?
The Activity was “inactive”.

`CN1CCC/C1=N\C(=O)Nc1ccccc1Cl` was tested. Which Activity did it give?
Its Activity is “Active”.

For `CC1/C(=N\C(=O)Nc2ccccc2)N(C)CC1c1ccccc1` (stereo not given), which Activity is on record?
The Activity was “inactive”.

tested on: Mus musculus; assay: Sedative-hypnotic activity in po dosed mouse assessed as increase in pentylenetetrazol-induced persistent-convulsive threshold; type: functional, organism-based

For `Cc1cccc(C)c1NC(=O)/N=C1\CCCCCN1`, which Activity is on record?
Its Activity is “inactive”.

`CN1CC(C)(C)C/C1=N\C(=O)Nc1cccc(Cl)c1` was tested. Which Activity did it give?
Its Activity is “inactive”.

`Cc1cccc(C)c1NC(=O)/N=C1\CCCCCN1C` was tested. Which Activity did it give?
Its Activity is “inactive”.

With `CCCCN1CCC/C1=N\C(=O)Nc1c(C)cccc1C` as the molecule, how does the Activity read?
Its Activity is “inactive”.

For `Cc1cccc(C)c1NC(=O)/N=C1\CCCN1Cc1ccccc1`, which Activity is on record?
Its Activity is “inactive”.

`CCCCN1CCC/C1=N\C(=O)Nc1cccc(Cl)c1` was tested. Which Activity did it give?
Its Activity is “inactive”.

`CN1CC(C)(C)C/C1=N\C(=O)Nc1c(Cl)cccc1Cl` was tested. Which Activity did it give?
Its Activity is “inactive”.

For `CN1CCC/C1=N\C(=O)Nc1ccccc1Cl`, which Activity is on record?
The Activity was “Active”.

For `CC1/C(=N\C(=O)Nc2ccccc2)N(C)CC1c1ccccc1` (stereo not given), which Activity is on record?
Its Activity is “inactive”.

tested on: Rattus norvegicus; assay: Antianxiety activity in ip dosed rat assessed as effect on increase in punished responses administered qd for 5 days measured every day for 5 days; type: functional

With `CN1CCC/C1=N\C(=O)Nc1cccc([N+](=O)[O-])c1` as the molecule, how does the Activity read?
Its Activity is “inactive”.

For `Cc1cccc(C)c1NC(=O)/N=C1\CCCCCN1`, which Activity is on record?
Its Activity is “inactive”.

For `CN1CC(C)(C)C/C1=N\C(=O)Nc1cccc(Cl)c1`, which Activity is on record?
Its Activity is “inactive”.

With `Cc1ccc(NC(=O)/N=C2\CCCN2C)cc1` as the molecule, how does the Activity read?
Its Activity is “inactive”.

For `Cc1cccc(C)c1NC(=O)/N=C1\CCCCCN1C`, which Activity is on record?
The Activity was “inactive”.

How did the Activity turn out when `CCCCN1CCC/C1=N\C(=O)Nc1c(C)cccc1C` was run?
The Activity was “inactive”.

`O=C(/N=C1\CCCN1)NC12CC3CC(CC(C3)C1)C2` was tested. Which Activity did it give?
The Activity was “inactive”.

Which Activity does the source give for `Cc1cccc(C)c1NC(=O)/N=C1\CCCN1Cc1ccccc1` here?
Its Activity is “inactive”.

Which Activity does the source give for `CN1CCC/C1=N\C(=O)Nc1ccc(Cl)cc1` here?
The Activity was “inactive”.

With `CCCCN1CCC/C1=N\C(=O)Nc1cccc(Cl)c1` as the molecule, how does the Activity read?
The Activity was “inactive”.

`CCCCCCCCCCCCCCCCCCNC(=O)/N=C1\CCCN1` was tested. Which Activity did it give?
Its Activity is “inactive”.

How did the Activity turn out when `CN1CC(C)(C)C/C1=N\C(=O)Nc1c(Cl)cccc1Cl` was run?
Its Activity is “inactive”.

For `CN1CCC/C1=N\C(=O)Nc1ccccc1Cl`, which Activity is on record?
Its Activity is “Active”.

For `CC1/C(=N\C(=O)Nc2ccccc2)N(C)CC1c1ccccc1` (stereo not given), which Activity is on record?
Its Activity is “inactive”.

`CN1CCC/C1=N\C(=O)Nc1ccc(F)cc1` was tested. Which Activity did it give?
The Activity was “inactive”.

With `CCOC(=O)c1ccc(NC(=O)/N=C2\CCCN2C)cc1` as the molecule, how does the Activity read?
The Activity was “inactive”.

Which Activity does the source give for `CSc1ccc(NC(=O)/N=C2\CCCN2C)cc1` here?
Its Activity is “inactive”.

`O=C(/N=C1\CCCN1)NC1CCCCC1` was tested. Which Activity did it give?
Its Activity is “inactive”.

How did the Activity turn out when `CN1CCC/C1=N\C(=O)Nc1ccc(C(F)(F)F)cc1` was run?
Its Activity is “inactive”.

How did the Activity turn out when `COc1ccc(NC(=O)/N=C2\CCCN2C)cc1` was run?
Its Activity is “inactive”.

How did the Activity turn out when `CN1CCC/C1=N\C(=O)Nc1ccc(S(C)(=O)=O)cc1` was run?
The Activity was “inactive”.

tested on: Mus musculus; assay: Muscle relaxant activity in po dosed mouse assessed as increase in strychnine-induced persistant convulsive threshold; type: functional

How did the Activity turn out when `Cc1cccc(C)c1NC(=O)/N=C1\CCCCCN1` was run?
Its Activity is “inactive”.

How did the Activity turn out when `CN1CC(C)(C)C/C1=N\C(=O)Nc1cccc(Cl)c1` was run?
Its Activity is “inactive”.

`Cc1ccc(NC(=O)/N=C2\CCCN2C)cc1` was tested. Which Activity did it give?
Its Activity is “inactive”.

Which Activity does the source give for `Cc1cccc(C)c1NC(=O)/N=C1\CCCCCN1C` here?
Its Activity is “inactive”.

Which Activity does the source give for `Cc1cc(N(C)C)cc(C)c1NC(=O)/N=C1\CCCN1C` here?
The Activity was “Active”.

How did the Activity turn out when `CCCCN1CCC/C1=N\C(=O)Nc1c(C)cccc1C` was run?
The Activity was “inactive”.

How did the Activity turn out when `Cc1cc(C)c(NC(=O)/N=C2\CCCN2C)c(C)c1` was run?
Its Activity is “Active”.

How did the Activity turn out when `Cc1cccc(C)c1NC(=O)/N=C1\CCCN1Cc1ccccc1` was run?
The Activity was “inactive”.

With `CN1CCC/C1=N\C(=O)Nc1ccc(Cl)cc1` as the molecule, how does the Activity read?
Its Activity is “inactive”.

How did the Activity turn out when `CCCCN1CCC/C1=N\C(=O)Nc1cccc(Cl)c1` was run?
The Activity was “inactive”.

For `CN1CC(C)(C)C/C1=N\C(=O)Nc1c(Cl)cccc1Cl`, which Activity is on record?
Its Activity is “inactive”.

With `CN1CCC/C1=N\C(=O)Nc1ccccc1Cl` as the molecule, how does the Activity read?
Its Activity is “Active”.

For `CC1/C(=N\C(=O)Nc2ccccc2)N(C)CC1c1ccccc1` (stereo not given), which Activity is on record?
Its Activity is “inactive”.

With `CN1CCC/C1=N\C(=O)Nc1ccc(F)cc1` as the molecule, how does the Activity read?
Its Activity is “inactive”.

With `CCOC(=O)c1ccc(NC(=O)/N=C2\CCCN2C)cc1` as the molecule, how does the Activity read?
The Activity was “inactive”.

`CSc1ccc(NC(=O)/N=C2\CCCN2C)cc1` was tested. Which Activity did it give?
Its Activity is “inactive”.

With `CN1CCC/C1=N\C(=O)Nc1c(Cl)cc(Cl)cc1Cl` as the molecule, how does the Activity read?
Its Activity is “Active”.

With `COc1ccc(NC(=O)/N=C2\CCCN2C)cc1` as the molecule, how does the Activity read?
The Activity was “inactive”.

For `CN1CCC/C1=N\C(=O)Nc1ccc(S(C)(=O)=O)cc1`, which Activity is on record?
Its Activity is “inactive”.

tested on: Mus musculus; assay: Anticonvulsant activity in po dosed mouse assessed as blockade of supramaximal electroshock-induced […] seizure; type: functional

For `O=C1NC(=O)C(c2ccccc2)(c2ccccc2)N1`, which Activity is on record?
The Activity was “Active”.

Which Activity does the source give for `Cc1cccc(C)c1NC(=O)/N=C1\CCCCCN1` here?
The Activity was “inactive”.

With `CN1CC(C)(C)C/C1=N\C(=O)Nc1cccc(Cl)c1` as the molecule, how does the Activity read?
Its Activity is “inactive”.

For `Cc1ccc(NC(=O)/N=C2\CCCN2C)cc1`, which Activity is on record?
The Activity was “inactive”.

For `Cc1cccc(C)c1NC(=O)/N=C1\CCCCCN1C`, which Activity is on record?
Its Activity is “inactive”.

For `CCCCN1CCC/C1=N\C(=O)Nc1c(C)cccc1C`, which Activity is on record?
The Activity was “inactive”.

For `CN1CCC/C1=N\C(=O)Nc1cc(C(F)(F)F)cc(C(F)(F)F)c1`, which Activity is on record?
Its Activity is “Active”.

`Cc1cccc(C)c1NC(=O)/N=C1\CCCN1Cc1ccccc1` was tested. Which Activity did it give?
The Activity was “inactive”.

Which Activity does the source give for `CN1CCC/C1=N\C(=O)Nc1ccc(Cl)cc1` here?
The Activity was “inactive”.

For `CCCCN1CCC/C1=N\C(=O)Nc1cccc(Cl)c1`, which Activity is on record?
Its Activity is “inactive”.

With `CN1CC(C)(C)C/C1=N\C(=O)Nc1c(Cl)cccc1Cl` as the molecule, how does the Activity read?
The Activity was “inactive”.

How did the Activity turn out when `CN1CCC/C1=N\C(=O)Nc1ccccc1Cl` was run?
Its Activity is “Active”.

How did the Activity turn out when `CC1/C(=N\C(=O)Nc2ccccc2)N(C)CC1c1ccccc1` (stereo not given) was run?
The Activity was “inactive”.

How did the Activity turn out when `CN1CCC/C1=N\C(=O)Nc1ccc(F)cc1` was run?
Its Activity is “inactive”.

How did the Activity turn out when `CCOC(=O)c1ccc(NC(=O)/N=C2\CCCN2C)cc1` was run?
Its Activity is “inactive”.

Which Activity does the source give for `CSc1ccc(NC(=O)/N=C2\CCCN2C)cc1` here?
The Activity was “inactive”.

For `COc1ccc(NC(=O)/N=C2\CCCN2C)cc1`, which Activity is on record?
The Activity was “inactive”.

How did the Activity turn out when `CN1CCC/C1=N\C(=O)Nc1ccc(S(C)(=O)=O)cc1` was run?
Its Activity is “inactive”.
